Measurements reported in ChEMBL document CHEMBL1131771, “Structure-activity relationship analysis of substituted 4-quinolinamines, antagonists of immunostimulatory CpG-oligodeoxynucleotides” (Bioorg Med Chem Lett, 1999).

Experiment: Concentration required for half-maximal inhibition of CpG-ODN effect on thymidine uptake by WEHI 231 murine B-cells in the presence of alpha-sIgM.
Format: functional, cell-based
Settings: Mus musculus, WEHI231

| EC50 [nM] | SMILES |
| --- | --- |
| 12.3 | Cc1ccc(-c2cc(NCCN(C)C)c3ccccc3n2)cc1 |
| 11.5 | Cc1ccc(-c2cc(NCCCN(C)C)c3ccccc3n2)cc1 |
| 11 | CN(C)CCCNc1cc(-c2ccc3ccccc3c2)nc2ccccc12 |
| 11 | CN(C)CCNc1cc(-c2ccc3ccc4ccccc4c3c2)nc2ccccc12 |
| 25.1 | O=C(CCCO)NCCCN1CCN(CCCNc2cc(-c3ccc4ccccc4c3)nc3ccccc23)CC1 |
| 1.2 | Oc1c(CN2CCCC2)cc(Nc2cc(-c3ccc4ccccc4c3)nc3ccccc23)cc1CN1CCCC1 |
| 4400 | CN(C)CCCNc1ccnc2ccccc12 |
| 1150 | CC(CCCC(C)(C)O)Nc1cc(-c2ccc3ccccc3c2)nc2ccccc12 (stereo not given) |
| 2400 | CN(C)CCSc1cc(-c2ccc3ccccc3c2)nc2ccccc12 |
| 1000 | CC(Nc1cc(-c2ccc3ccccc3c2)nc2ccccc12)C(O)c1ccccc1 (stereo not given) |
| 155 | CN(C)CCNc1cc(-c2ccc(C(F)(F)F)cc2)nc2ccccc12 |
| 39.8 | CN(C)CCNc1cc(-c2cccc3ccccc23)nc2ccccc12 |
| 330 | OCCOCCNc1cc(-c2ccc3ccccc3c2)nc2ccccc12 |
| > 10000 | CN(C)CCNC(=O)c1cc(-c2ccc3ccccc3c2)nc2ccccc12 |
| 416 | CN(C)CCN(C)c1cc(-c2ccc3ccccc3c2)nc2ccccc12 |
| 10 | Oc1c(CN2CCOCC2)cc(Nc2cc(-c3ccc4ccccc4c3)nc3ccccc23)cc1CN1CCOCC1 |

| EC50 [nM] | SMILES |
| --- | --- |
| 570 | CC(C)(C)OC(=O)NCCNc1cc(-c2ccc3ccccc3c2)nc2ccccc12 |
| 170 | OCCCCCCNc1cc(-c2ccc3ccccc3c2)nc2ccccc12 |
| 9.1 | CN(C)CCNc1cc(-c2ccc3ccccc3c2)nc2ccccc12 |
| 478 | CN(C)CCOc1cc(-c2ccc3ccccc3c2)nc2ccccc12 |
| 320 | Oc1ccc(Nc2cc(-c3ccc4ccccc4c3)nc3ccccc23)cc1 |
| 510 | OCCc1ccc(Nc2cc(-c3ccc4ccccc4c3)nc3ccccc23)cc1 |
| 51.3 | CCN(CC)CCCC(C)Nc1cc(-c2ccccc2)nc2cc(Cl)ccc12 (stereo not given) |
| 6.5 | CN(C)CCNc1cc(/C=C/c2ccccc2)nc2ccccc12 |
| 4 | CN(C)CCCCNc1cc(-c2ccc3ccccc3c2)nc2ccccc12 |
| > 10000 | CCCCc1ccc(Nc2cc(-c3ccc4ccccc4c3)nc3ccccc23)cc1 |
| 0.24 | CN1CCN(Cc2cc(Nc3cc(-c4ccc5ccccc5c4)nc4ccccc34)cc(CN3CCN(C)CC3)c2O)CC1 |
| 316 | CN(C)CCCCNc1ccnc2ccccc12 |
| 1.5 | Oc1c(CN2CCCCC2)cc(Nc2cc(-c3ccc4ccccc4c3)nc3ccccc23)cc1CN1CCCCC1 |
| 5.9 | CN(C)CCCCCCNc1cc(-c2ccc3ccccc3c2)nc2ccccc12 |
| 110 | CCN(CC)CCCC(C)Nc1ccnc2cc(Cl)ccc12 (stereo not given) [CHLOROQUINE] |

Experiment: Acid dissociation constant was evaluated
Format: ADME
Settings: not given

| pKa | SMILES |
| --- | --- |
| 2.9 | CN(C)CCNC(=O)c1cc(-c2ccc3ccccc3c2)nc2ccccc12 |
| 6.2 | CN(C)CCN(C)c1cc(-c2ccc3ccccc3c2)nc2ccccc12 |
| 6.1 | CN(C)CCOc1cc(-c2ccc3ccccc3c2)nc2ccccc12 |
| 6.9 | CN1CCN(Cc2cc(Nc3cc(-c4ccc5ccccc5c4)nc4ccccc34)cc(CN3CCN(C)CC3)c2O)CC1 |
